Numbers after ± are expanded uncertainties.
Assay: activity coefficient (dimensionless); of the first substance listed, at infinite dilution; xn = mol fraction of the nth substance listed
Conditions: 101 kPa, Liquid, Chromatography, x1 = 0

Row | Compound | activity coefficient (323.15 K) | activity coefficient (333.15 K) | activity coefficient (343.15 K) | activity coefficient (353.15 K) | activity coefficient (373.15 K)
1 | Cc1ccccc1C [1,2-dimethylbenzene] + CC1(C)[C@@H]2CC[C@@]1(CS(=O)(=O)[O-])C(=O)C2.CCCCCCCCCCCCCC[N+](CCCCCC)(CCCCCC)CCCCCC | 0.49 ± 0.04 | 0.77 ± 0.05 | 1.13 ± 0.07 | – | –
2 | Cc1ccccc1C [1,2-dimethylbenzene] + CCCCCCCCCCCCCC[N+](CCCCCC)(CCCCCC)CCCCCC.C[C@H](O)C(=O)[O-] | 0.53 ± 0.04 | – | – | 0.55 ± 0.04 | 0.58 ± 0.04
3 | Cc1cccc(C)c1 [1,3-dimethylbenzene] + CC1(C)[C@@H]2CC[C@@]1(CS(=O)(=O)[O-])C(=O)C2.CCCCCCCCCCCCCC[N+](CCCCCC)(CCCCCC)CCCCCC | 0.52 ± 0.04 | 0.81 ± 0.05 | 1.16 ± 0.07 | – | –
4 | Cc1cccc(C)c1 [1,3-dimethylbenzene] + CCCCCCCCCCCCCC[N+](CCCCCC)(CCCCCC)CCCCCC.C[C@H](O)C(=O)[O-] | 0.57 ± 0.04 | – | – | 0.59 ± 0.04 | 0.6 ± 0.1
5 | Cc1ccc(C)cc1 [1,4-dimethylbenzene] + CC1(C)[C@@H]2CC[C@@]1(CS(=O)(=O)[O-])C(=O)C2.CCCCCCCCCCCCCC[N+](CCCCCC)(CCCCCC)CCCCCC | 0.51 ± 0.04 | 0.8 ± 0.1 | 1.17 ± 0.07 | – | –
6 | Cc1ccc(C)cc1 [1,4-dimethylbenzene] + CCCCCCCCCCCCCC[N+](CCCCCC)(CCCCCC)CCCCCC.C[C@H](O)C(=O)[O-] | 0.58 ± 0.04 | – | – | 0.58 ± 0.04 | 0.58 ± 0.04
7 | C1COCCO1 [1,4-dioxane] + CC1(C)[C@@H]2CC[C@@]1(CS(=O)(=O)[O-])C(=O)C2.CCCCCCCCCCCCCC[N+](CCCCCC)(CCCCCC)CCCCCC | 0.52 ± 0.04 | 0.74 ± 0.05 | 1 | – | –
8 | C#CCCCCC [1-heptyne] + CC1(C)[C@@H]2CC[C@@]1(CS(=O)(=O)[O-])C(=O)C2.CCCCCCCCCCCCCC[N+](CCCCCC)(CCCCCC)CCCCCC | 0.49 ± 0.04 | 0.78 ± 0.05 | 1.17 ± 0.07 | – | –
9 | C#CCCCC [1-hexyne] + CC1(C)[C@@H]2CC[C@@]1(CS(=O)(=O)[O-])C(=O)C2.CCCCCCCCCCCCCC[N+](CCCCCC)(CCCCCC)CCCCCC | 0.46 ± 0.04 | 0.69 ± 0.05 | 0.95 ± 0.06 | – | –
10 | CCC[N+](=O)[O-] [1-nitropropane] + CC1(C)[C@@H]2CC[C@@]1(CS(=O)(=O)[O-])C(=O)C2.CCCCCCCCCCCCCC[N+](CCCCCC)(CCCCCC)CCCCCC | 0.35 ± 0.03 | 0.55 ± 0.04 | 0.82 ± 0.05 | – | –
11 | CCC[N+](=O)[O-] [1-nitropropane] + CCCCCCCCCCCCCC[N+](CCCCCC)(CCCCCC)CCCCCC.C[C@H](O)C(=O)[O-] | 0.33 ± 0.03 | – | – | 0.34 ± 0.03 | 0.36 ± 0.03
12 | CC(C)CC(C)(C)C [2,2,4-trimethylpentane] + CCCCCCCCCCCCCC[N+](CCCCCC)(CCCCCC)CCCCCC.C[C@H](O)C(=O)[O-] | 1.33 ± 0.09 | – | – | 1.27 ± 0.08 | 1.25 ± 0.08
13 | CC(C)CO [2-methyl-1-propanol] + CC1(C)[C@@H]2CC[C@@]1(CS(=O)(=O)[O-])C(=O)C2.CCCCCCCCCCCCCC[N+](CCCCCC)(CCCCCC)CCCCCC | 0.08 ± 0.03 | 0.15 ± 0.03 | 0.24 ± 0.03 | – | –
14 | CC#N [acetonitrile] + CC1(C)[C@@H]2CC[C@@]1(CS(=O)(=O)[O-])C(=O)C2.CCCCCCCCCCCCCC[N+](CCCCCC)(CCCCCC)CCCCCC | 0.46 ± 0.04 | 0.66 ± 0.05 | 0.89 ± 0.06 | – | –
15 | CC#N [acetonitrile] + CCCCCCCCCCCCCC[N+](CCCCCC)(CCCCCC)CCCCCC.C[C@H](O)C(=O)[O-] | 0.45 ± 0.04 | – | – | 0.44 ± 0.04 | 0.43 ± 0.04
16 | c1ccccc1 [benzene] + CC1(C)[C@@H]2CC[C@@]1(CS(=O)(=O)[O-])C(=O)C2.CCCCCCCCCCCCCC[N+](CCCCCC)(CCCCCC)CCCCCC | 0.36 ± 0.03 | 0.51 ± 0.04 | 0.69 ± 0.05 | – | –
17 | c1ccccc1 [benzene] + CCCCCCCCCCCCCC[N+](CCCCCC)(CCCCCC)CCCCCC.C[C@H](O)C(=O)[O-] | 0.38 ± 0.03 | – | – | 0.38 ± 0.03 | 0.39 ± 0.03
18 | CCCCO [butan-1-ol] + CC1(C)[C@@H]2CC[C@@]1(CS(=O)(=O)[O-])C(=O)C2.CCCCCCCCCCCCCC[N+](CCCCCC)(CCCCCC)CCCCCC | 0.09 ± 0.03 | 0.15 ± 0.03 | 0.27 ± 0.03 | – | –
19 | CCC(C)=O [butanone] + CC1(C)[C@@H]2CC[C@@]1(CS(=O)(=O)[O-])C(=O)C2.CCCCCCCCCCCCCC[N+](CCCCCC)(CCCCCC)CCCCCC | 0.43 ± 0.04 | 0.57 ± 0.04 | 0.73 ± 0.05 | – | –
20 | C1CCCCC1 [cyclohexane] + CC1(C)[C@@H]2CC[C@@]1(CS(=O)(=O)[O-])C(=O)C2.CCCCCCCCCCCCCC[N+](CCCCCC)(CCCCCC)CCCCCC | 0.69 ± 0.05 | 0.95 ± 0.06 | 1.24 ± 0.08 | – | –
